Experimental data: patent publication US8952024B2, “Herbicidal pyrimidone derivatives” (E I du Pont de Nemours and Company, priority 2009, dated 2015)

Columns and labels:
Assay in all cases: Test B pre-/postemergence plant response
Assay type in all cases: in vivo
[1] = test system: Italian ryegrass (Lolium multiflorum)
Outline: (§1)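 Ratings reflect visual comparison with untreated controls 13 to 15 days after application, from 0 (no effect) to 100 (complete control). Application was preemergence to seeded loam/sand soil or postemergence to 1- to 4-leaf plants, with compound in a non-phytotoxic, surfactant-containing solvent.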

[2] = test system: bermudagrass (Cynodon dactylon)
Outline: as §1

[3] = test system: corn (Zea mays)
Outline: as §1

[4] = test system: downy bromegrass (Bromus tectorum)
Outline: as §1

[5] = test system: giant foxtail (Setaria faberii)
Outline: as §1

[6] = test system: goosegrass (Eleusine indica)
Outline: as §1

[7] = test system: green foxtail (Setaria viridis)
Outline: as §1

[8] = test system: johnsongrass (Sorghum halepense)
Outline: as §1

[9] = test system: large crabgrass (Digitaria sanguinalis)
Outline: as §1

[10] = test system: morningglory (Ipomoea coccinea)
Outline: as §1

[11] = test system: ragweed (common ragweed, Ambrosia elatior)
Outline: as §1

[12] = test system: woolly cupgrass (Eriochloa villosa)
Outline: as §1

[13] = test system: yellow nutsedge (Cyperus esculentus)
Outline: as §1

[14] = 31 g ai/ha, postemergence, scale 0 to 100, 0 is no effect, 100 is complete control
[15] = Postemergence, 62 g ai/ha, scale 0 (no effect) to 100 (complete control), 13 to 15 days
[16] = Postemergence, 125 g ai/ha, visual rating after 13 to 15 days, scale 0 (no effect) to 100 (complete control)
[17] = Postemergence, 250 g ai/ha, scale 0 to 100 (0 no effect, 100 complete control)
[18] = Preemergence, 31 g ai/ha, scale 0 to 100 (0 no effect, 100 complete control)
[19] = Preemergence, 62 g ai/ha, scale 0 to 100 (0 no effect, 100 complete control)
[20] = Preemergence, 125 g ai/ha, scale 0 to 100, 0 no effect, 100 complete control
[21] = 250 g ai/ha, Preemergence, 0 to 100 scale

O=C1CCCC(O)=C1C(=O)c1cnc(-c2ccsc2)n(-c2ccccc2)c1=O [Compound 56]
Plant response rating, Ryegrass, Italian [1, 14]: 0 | Plant response rating, Ryegrass, Italian [1, 15]: 0 | Plant response rating, Ryegrass, Italian [1, 16]: 50 | Plant response rating, Ryegrass, Italian [1, 17]: 50 | Plant response rating, Ryegrass, Italian [1, 18]: 0 | Plant response rating, Ryegrass, Italian [1, 19]: 0 | Plant response rating, Ryegrass, Italian [1, 20]: 0 | Plant response rating, Bermudagrass [2, 14]: 75 | Plant response rating, Bermudagrass [2, 21]: 100 | Plant response rating, Bermudagrass [2, 15]: 85 | Plant response rating, Bermudagrass [2, 16]: 100 | Plant response rating, Bermudagrass [2, 17]: 100 | Plant response rating, Bermudagrass [2, 18]: 98 | Plant response rating, Bermudagrass [2, 19]: 100 | Plant response rating, Bermudagrass [2, 20]: 100 | Plant response rating, Corn [3, 14]: 45 | Plant response rating, Corn [3, 21]: 0 | Plant response rating, Corn [3, 15]: 65 | Plant response rating, Corn [3, 16]: 65 | Plant response rating, Corn [3, 17]: 70 | Plant response rating, Corn [3, 18]: 0 | Plant response rating, Corn [3, 19]: 0 | Plant response rating, Corn [3, 20]: 0 | Plant response rating, Bromegrass, Downy [4, 14]: 35 | Plant response rating, Bromegrass, Downy [4, 21]: 5 | Plant response rating, Bromegrass, Downy [4, 15]: 45 | Plant response rating, Bromegrass, Downy [4, 16]: 50 | Plant response rating, Bromegrass, Downy [4, 17]: 60 | Plant response rating, Bromegrass, Downy [4, 18]: 0 | Plant response rating, Bromegrass, Downy [4, 19]: 0 | Plant response rating, Bromegrass, Downy [4, 20]: 0 | Plant response rating, Foxtail, Giant [5, 14]: 75 | Plant response rating, Foxtail, Giant [5, 21]: 80 | Plant response rating, Foxtail, Giant [5, 15]: 80 | Plant response rating, Foxtail, Giant [5, 16]: 85 | Plant response rating, Foxtail, Giant [5, 17]: 95 | Plant response rating, Foxtail, Giant [5, 18]: 0 | Plant response rating, Foxtail, Giant [5, 19]: 40 | Plant response rating, Foxtail, Giant [5, 20]: 75 | Plant response rating, Goosegrass [6, 14]: 65 | Plant response rating, Goosegrass [6, 21]: 100 | Plant response rating, Goosegrass [6, 15]: 75 | Plant response rating, Goosegrass [6, 16]: 75 | Plant response rating, Goosegrass [6, 17]: 90 | Plant response rating, Goosegrass [6, 18]: 90 | Plant response rating, Goosegrass [6, 19]: 95 | Plant response rating, Goosegrass [6, 20]: 95 | Plant response rating, Foxtail, Green [7, 14]: 80 | Plant response rating, Foxtail, Green [7, 21]: 100 | Plant response rating, Foxtail, Green [7, 15]: 85 | Plant response rating, Foxtail, Green [7, 16]: 98 | Plant response rating, Foxtail, Green [7, 17]: 100 | Plant response rating, Foxtail, Green [7, 18]: 0 | Plant response rating, Foxtail, Green [7, 19]: 20 | Plant response rating, Foxtail, Green [7, 20]: 20 | Plant response rating, Johnsongrass [8, 14]: 55 | Plant response rating, Johnsongrass [8, 21]: 80 | Plant response rating, Johnsongrass [8, 15]: 80 | Plant response rating, Johnsongrass [8, 16]: 85 | Plant response rating, Johnsongrass [8, 17]: 100 | Plant response rating, Johnsongrass [8, 18]: 10 | Plant response rating, Johnsongrass [8, 19]: 45 | Plant response rating, Johnsongrass [8, 20]: 55 | Plant response rating, Crabgrass, Large [9, 14]: 75 | Plant response rating, Crabgrass, Large [9, 21]: 98 | Plant response rating, Crabgrass, Large [9, 15]: 85 | Plant response rating, Crabgrass, Large [9, 16]: 90 | Plant response rating, Crabgrass, Large [9, 17]: 95 | Plant response rating, Crabgrass, Large [9, 18]: 80 | Plant response rating, Crabgrass, Large [9, 19]: 85 | Plant response rating, Crabgrass, Large [9, 20]: 98 | Plant response rating, Morningglory [10, 16]: 100 | Plant response rating, Morningglory [10, 17]: 100 | Plant response rating, Morningglory [10, 18]: 0 | Plant response rating, Morningglory [10, 19]: 0 | Plant response rating, Morningglory [10, 20]: 45 | Plant response rating, Ragweed [11, 14]: 55 | Plant response rating, Ragweed [11, 15]: 55 | Plant response rating, Ragweed [11, 16]: 75 | Plant response rating, Ragweed [11, 17]: 75 | Plant response rating, Ragweed [11, 18]: 20 | Plant response rating, Ragweed [11, 19]: 65 | Plant response rating, Ragweed [11, 20]: 70 | Plant response rating, Cupgrass, Woolly [12, 14]: 15 | Plant response rating, Cupgrass, Woolly [12, 21]: 70 | Plant response rating, Cupgrass, Woolly [12, 15]: 45 | Plant response rating, Cupgrass, Woolly [12, 16]: 65 | Plant response rating, Cupgrass, Woolly [12, 17]: 85 | Plant response rating, Cupgrass, Woolly [12, 18]: 0 | Plant response rating, Cupgrass, Woolly [12, 19]: 20 | Plant response rating, Cupgrass, Woolly [12, 20]: 50 | Plant response rating, Nutsedge, Yellow [13, 14]: 20 | Plant response rating, Nutsedge, Yellow [13, 15]: 70 | Plant response rating, Nutsedge, Yellow [13, 16]: 75 | Plant response rating, Nutsedge, Yellow [13, 17]: 75 | Plant response rating, Nutsedge, Yellow [13, 18]: 20 | Plant response rating, Nutsedge, Yellow [13, 19]: 80 | Plant response rating, Nutsedge, Yellow [13, 20]: 85
